From ChEMBL document CHEMBL1154198, “Chemical genetics of Plasmodium falciparum” (Nature, 2010)

How the values were obtained:
[1] = test system: Plasmodium falciparum; experiment: ST_JUDE: Plasmodium falciparum K1 EC50 (uM) as measured by SYBR green dye; assay type: functional, organism-based
[2] = test system: Plasmodium falciparum; experiment: ST_JUDE: Plasmodium falciparum 3D7 EC50 (uM) as measured by SYBR green dye; assay type: functional, organism-based

Row | EC50 [1] | EC50 [2] | SMILES
1 | > 15 µM | 2.86 µM | CCOC(=O)c1ccc2nc(C)cc(Nc3ccc(OC)cc3)c2c1
2 | 4.09 µM | 3.17 µM | C=CCOc1cccc(C(Nc2cc(C)ccn2)c2ccc3cccnc3c2O)c1 (stereo not given)
3 | 2.41 µM | 3.57 µM | Cc1ccc(O)c(-n2cc3c(c2-c2ccc(C(C)(C)C)cc2)c(=O)n(C)c(=O)n3C)c1
4 | > 15 µM | > 15 µM | COc1cc(NC(=O)COc2cc(C)c(Cl)c(C)c2)cc(OC)c1
5 | 1.92 µM | 1.34 µM | COc1ccc(C)cc1NC(=S)N1CCN(c2ccc([N+](=O)[O-])cc2)CC1
6 | 2.36 µM | 3.34 µM | COc1ccccc1N1CCN(Cc2cc(Cl)c3cccnc3c2O)CC1
7 | 4.33 µM | 0.594 µM | COc1ccccc1C1CC(c2ccccc2)=NN1C(=O)c1ccco1 (stereo not given)
8 | 6.56 µM | 0.867 µM | CCOc1cc(/C=N/N=C(N)N)ccc1OCc1ccccc1
9 | > 15 µM | > 15 µM | COc1ccc(N2C(=O)/C(=C/Nc3ccccc3OC)c3ccccc3C2=O)cc1
10 | > 15 µM | > 15 µM | CCOC(=O)c1ccc(NC(=O)N2CCN(Cc3ccccc3)CC2)cc1
11 | > 15 µM | > 15 µM | CCOCCn1/c(=N/C(=O)COc2ccc(Cl)cc2)sc2cc(OCC)ccc21
12 | > 15 µM | 7.44 µM | CN1CCN(c2ccc(NC(=O)c3cccc(I)c3)cc2Cl)CC1
13 | 3.77 µM | 3.46 µM | COc1ccc(C2C(C(=O)Nc3ccc(C)cc3Br)c3ccccc3C(=O)N2C)cc1 (stereo not given)
14 | 2.73 µM | 2.32 µM | CCOc1c(Br)cc(C2C(C#N)=C(N)Oc3cc4c(cc32)OCO4)cc1OC (stereo not given)
15 | > 15 µM | > 15 µM | COc1ccc(OC)c(N2C(=O)c3cccc4c([N+](=O)[O-])ccc(c34)C2=O)c1
16 | 4.65 µM | 2.02 µM | CCCN1CCN(CCCNC(=O)c2ccc3c(c2)sc2nc(-c4ccc(C)cc4)cn23)CC1
17 | 2.32 µM | 3.42 µM | Oc1c(CN2CCCCC2)cc(Br)c2cccnc12
18 | 0.577 µM | 0.516 µM | CCc1cccc2c(C#N)cn(CCOc3ccccc3Cl)c12

Row | EC50 [1] | EC50 [2] | SMILES
19 | 3.94 µM | 5.77 µM | Cc1cc(C)c2sc(N(Cc3cccnc3)C(=O)c3ccc(C#N)cc3)nc2c1
20 | 2.66 µM | > 15 µM | COc1ccc(C(NC(=O)c2cccnc2)c2cc(Cl)c3cccnc3c2O)cc1OC (stereo not given)
21 | 3.2 µM | 4.85 µM | CCc1cc(-c2[nH]nc(C)c2Oc2ccc(Cl)cc2)c(O)cc1OC
22 | 1.37 µM | 2.17 µM | CCc1ccc(CNCC(O)c2ccccc2)cc1 (stereo not given)
23 | 5.79 µM | 2.39 µM | Cn1c2c(c(=N)c3c1CCC3)CCCC2
24 | 0.466 µM | 1.36 µM | O=C(Nc1ccc(Cl)cc1)Nc1cc(OCC(F)(F)F)cc(OCC(F)(F)F)c1
25 | 0.204 µM | 0.514 µM | CCN1CCN(Cc2c(O)ccc3c(=O)c(Oc4cc(C)cc(C)c4)c(C(F)(F)F)oc23)CC1
26 | > 15 µM | 4.13 µM | Cc1c(Cl)cccc1NC(=O)Nc1ccc(Cl)c(Cl)c1
27 | > 15 µM | > 15 µM | CCCCCCCCc1c(C)c(C#N)c2nc3ccccc3n2c1-n1cnc2ccccc21
28 | 0.735 µM | 1.71 µM | CC(C)CCNCC(O)CON=C1c2ccccc2-c2ccccc21 (stereo not given)
29 | 5.83 µM | 7.12 µM | Cc1cccc2sc(NNC(=O)c3ccc(S(=O)(=O)N(C)C)cc3)nc12
30 | 5.97 µM | > 15 µM | Cc1c(N)cc[n+](CC(=O)c2ccccc2)c1C
31 | > 15 µM | > 15 µM | Cc1onc(-c2ccccc2)c1C(=O)Nc1cccc(Br)c1
32 | 9.29 µM | 6.92 µM | CCCC(=O)NC(c1ccc(Cl)cc1)c1c(OC(C)=O)ccc2ccccc12 (stereo not given)
33 | 1.39 µM | > 15 µM | COc1ccc(OC)c(C2C(C(=O)OC(C)C)=C(C)N=c3s/c(=C\c4ccc(O)cc4)c(=O)n32)c1 (stereo not given)
34 | 3.56 µM | 1.4 µM | COc1ccc(N2CCN(C(=S)Nc3ccccc3Cl)CC2C)cc1 (stereo not given)
35 | > 15 µM | > 15 µM | O=C(Nc1ccc2oc(-c3ccc(F)cc3Cl)nc2c1)C(Cl)(Cl)Cl
